In ChEMBL document CHEMBL3885881, “DrugMatrix”:

Organism: Rattus norvegicus
Assay: DrugMatrix - Regimen: Daily Repeat
Format: toxicity, organism-based, Sprague-Dawley
Parameters: regimen Daily Repeat, gender Male, age 6-8 weeks
Settings: in vivo, po, route oral GAVAGE; for TOTAL BILIRUBIN / TOTAL PROTEIN / URIC ACID / ALANINE AMINOTRANSFERASE / ALBUMIN / ALKALINE PHOSPHATASE / ASPARTATE AMINOTRANSFERASE / BLOOD UREA NITROGEN / CARBON DIOXIDE / CHLORIDE / CHOLESTEROL / CREATINE PHOSPHOKINASE / CREATININE / GLUCOSE / LIPASE / PHOSPHORUS / POTASSIUM / SODIUM / LACTATE DEHYDROGENASE: tissue Plasma; for ABSOLUTE BASOPHIL / ABSOLUTE EOSINOPHIL / ABSOLUTE LYMPHOCYTE / ABSOLUTE MONOCYTE / BASOPHIL / EOSINOPHIL / ERYTHROCYTE COUNT / HEMATOCRIT / HEMOGLOBIN / LEUKOCYTE COUNT / LYMPHOCYTE / MEAN CORPUSCULAR HEMOGLOBIN / MEAN CORPUSCULAR HEMOGLOBIN CONCENTRATION / MEAN CORPUSCULAR VOLUME / MONOCYTE / NEUTROPHIL / PLATELET COUNT: tissue Blood
[1] = 40 mg/kg, 72 h, dose level Low, time 3 day, […]
[2] = 40 mg/kg, 120 h, dose level Low, time 5 day, […]
[3] = 40 mg/kg, […], dose level Low, time 14 day
[4] = 75 mg/kg, 72 h, dose level High, time 3 day, vehicle 100 % WATER
[5] = 75 mg/kg, 120 h, dose level High, time 5 day, vehicle 100 % WATER

`C=CCN` [ALLYLAMINE] was tested, and the “TOTAL BILIRUBIN” value [1] was 0.37 mg/dL, the “TOTAL PROTEIN” value [1] was 6.2 G/DL and the “URIC ACID” value [1] was 0.87 mg/dL. The ABSOLUTE BASOPHIL [2] was 43.3 cells/µL, the ABSOLUTE EOSINOPHIL [2] was 90 cells/µL and the ABSOLUTE LYMPHOCYTE [2] was 7670 cells/µL. It also gave an ABSOLUTE MONOCYTE [2] of 220 cells/µL, a BASOPHIL [2] of 0.4% and an EOSINOPHIL [2] of 0.87%. For the same compound, the “ERYTHROCYTE COUNT” value [2] was 6.74 x10E6/uL, the HEMATOCRIT [2] was 45.3% and the HEMOGLOBIN [2] was 14.1 G/DL. For the same compound, the “LEUKOCYTE COUNT” value [2] was 9.63 x10E3/uL, the LYMPHOCYTE [2] was 79.33% and the “MEAN CORPUSCULAR HEMOGLOBIN” value [2] was 20.87 pg. For the same compound, the “MEAN CORPUSCULAR HEMOGLOBIN CONCENTRATION” value [2] was 31 G/DL, the “MEAN CORPUSCULAR VOLUME” value [2] was 67.23 fL and the MONOCYTE [2] was 2.27%. The NEUTROPHIL [2] was 16.57%, the “PLATELET COUNT” value [2] was 1351.33 x10E3/uL and the “ALANINE AMINOTRANSFERASE” value [2] was 42.33 u/L. For the same compound, the ALBUMIN [2] was 4.03 G/DL, the “ALKALINE PHOSPHATASE” value [2] was 470.67 u/L and the “ASPARTATE AMINOTRANSFERASE” value [2] was 72.67 u/L. The “BLOOD UREA NITROGEN” value [2] was 16 mg/dL, the “CARBON DIOXIDE” value [2] was 41 mmol/L and the CHLORIDE [2] was 105.33 MEQ/L. For the same compound, the CHOLESTEROL [2] was 72 mg/dL, the “CREATINE PHOSPHOKINASE” value [2] was 350.33 u/L and the CREATININE [2] was 0.53 mg/dL. The GLUCOSE [2] was 155.33 mg/dL, the LIPASE [2] was 249.67 u/L and the PHOSPHORUS [2] was 9.53 mg/dL. The POTASSIUM [2] was 6.27 MEQ/L, the SODIUM [2] was 147.33 MEQ/L and the “TOTAL BILIRUBIN” value [2] was 0.47 mg/dL. For the same compound, the “TOTAL PROTEIN” value [2] was 6.63 G/DL, the “URIC ACID” value [2] was 0.9 mg/dL and the ABSOLUTE BASOPHIL [3] was 50 cells/µL. The ABSOLUTE EOSINOPHIL [3] was 42 cells/µL, the ABSOLUTE LYMPHOCYTE [3] was 10000 cells/µL and the ABSOLUTE MONOCYTE [3] was 250 cells/µL. For the same compound, the BASOPHIL [3] was 0.38%, the EOSINOPHIL [3] was 0.34% and the “ERYTHROCYTE COUNT” value [3] was 7.47 x10E6/uL. For the same compound, the HEMATOCRIT [3] was 46.98%, the HEMOGLOBIN [3] was 15.52 G/DL and the “LEUKOCYTE COUNT” value [3] was 12.8 x10E3/uL. The LYMPHOCYTE [3] was 78.9%, the “MEAN CORPUSCULAR HEMOGLOBIN” value [3] was 20.78 pg and the “MEAN CORPUSCULAR HEMOGLOBIN CONCENTRATION” value [3] was 33.02 G/DL. The “MEAN CORPUSCULAR VOLUME” value [3] was 62.96 fL, the MONOCYTE [3] was 1.9% and the NEUTROPHIL [3] was 17.96%. For the same compound, the “PLATELET COUNT” value [3] was 1148.8 x10E3/uL, the “ALANINE AMINOTRANSFERASE” value [3] was 29 u/L and the ALBUMIN [3] was 4.18 G/DL. For the same compound, the “ALKALINE PHOSPHATASE” value [3] was 389.8 u/L, the “ASPARTATE AMINOTRANSFERASE” value [3] was 69.2 u/L and the “BLOOD UREA NITROGEN” value [3] was 13.8 mg/dL. The “CARBON DIOXIDE” value [3] was 44.6 mmol/L, the CHLORIDE [3] was 102.4 MEQ/L and the CHOLESTEROL [3] was 74.2 mg/dL. The “CREATINE PHOSPHOKINASE” value [3] was 240 u/L, the CREATININE [3] was 0.76 mg/dL and the GLUCOSE [3] was 131.8 mg/dL. The “LACTATE DEHYDROGENASE” value [3] was 199 u/L, the LIPASE [3] was 11.2 u/L and the PHOSPHORUS [3] was 9.98 mg/dL. For the same compound, the POTASSIUM [3] was 6.2 MEQ/L, the SODIUM [3] was 145.8 MEQ/L and the “TOTAL BILIRUBIN” value [3] was 0.4 mg/dL. For the same compound, the “TOTAL PROTEIN” value [3] was 6.92 G/DL, the “URIC ACID” value [3] was 0.58 mg/dL and the BASOPHIL [4] was 0.63%. The EOSINOPHIL [4] was 0.23%, the “ERYTHROCYTE COUNT” value [4] was 6.73 x10E6/uL and the HEMATOCRIT [4] was 44.27%. For the same compound, the HEMOGLOBIN [4] was 14.4 G/DL, the “LEUKOCYTE COUNT” value [4] was 16.4 x10E3/uL and the LYMPHOCYTE [4] was 77.37%. The “MEAN CORPUSCULAR HEMOGLOBIN” value [4] was 21.43 pg, the “MEAN CORPUSCULAR HEMOGLOBIN CONCENTRATION” value [4] was 32.6 G/DL and the “MEAN CORPUSCULAR VOLUME” value [4] was 65.77 fL. The MONOCYTE [4] was 2.5%, the NEUTROPHIL [4] was 16.67% and the “PLATELET COUNT” value [4] was 1260.67 x10E3/uL. For the same compound, the “ALANINE AMINOTRANSFERASE” value [4] was 39 u/L, the ALBUMIN [4] was 3.9 G/DL and the “ALKALINE PHOSPHATASE” value [4] was 237 u/L. For the same compound, the “ASPARTATE AMINOTRANSFERASE” value [4] was 74.33 u/L, the “BLOOD UREA NITROGEN” value [4] was 13.67 mg/dL and the “CARBON DIOXIDE” value [4] was 24.67 mmol/L. The CHLORIDE [4] was 108 MEQ/L, the CHOLESTEROL [4] was 104.33 mg/dL and the “CREATINE PHOSPHOKINASE” value [4] was 169 u/L. For the same compound, the CREATININE [4] was 0.4 mg/dL, the GLUCOSE [4] was 146 mg/dL and the “LACTATE DEHYDROGENASE” value [4] was 59 u/L. The LIPASE [4] was 35.33 u/L, the PHOSPHORUS [4] was 11.03 mg/dL and the POTASSIUM [4] was 5.8 MEQ/L. The SODIUM [4] was 151 MEQ/L, the “TOTAL BILIRUBIN” value [4] was 0.23 mg/dL and the “TOTAL PROTEIN” value [4] was 6.07 G/DL. For the same compound, the “URIC ACID” value [4] was 1.93 mg/dL, the BASOPHIL [5] was 0.35% and the EOSINOPHIL [5] was 0.7%. The “ERYTHROCYTE COUNT” value [5] was 6.38 x10E6/uL, the HEMATOCRIT [5] was 42.1% and the HEMOGLOBIN [5] was 13.35 G/DL. For the same compound, the “LEUKOCYTE COUNT” value [5] was 11.54 x10E3/uL, the LYMPHOCYTE [5] was 82.75% and the “MEAN CORPUSCULAR HEMOGLOBIN” value [5] was 20.9 pg. The “MEAN CORPUSCULAR HEMOGLOBIN CONCENTRATION” value [5] was 31.65 G/DL, the “MEAN CORPUSCULAR VOLUME” value [5] was 66.05 fL and the MONOCYTE [5] was 2%. The NEUTROPHIL [5] was 6.45%, the “PLATELET COUNT” value [5] was 1169 x10E3/uL and the “ALANINE AMINOTRANSFERASE” value [5] was 28.5 u/L. For the same compound, the ALBUMIN [5] was 4 G/DL, the “ALKALINE PHOSPHATASE” value [5] was 238.5 u/L and the “ASPARTATE AMINOTRANSFERASE” value [5] was 69.5 u/L. The “BLOOD UREA NITROGEN” value [5] was 17.5 mg/dL, the “CARBON DIOXIDE” value [5] was 23 mmol/L and the CHLORIDE [5] was 107.5 MEQ/L. The CHOLESTEROL [5] was 62 mg/dL, the “CREATINE PHOSPHOKINASE” value [5] was 269 u/L and the CREATININE [5] was 0.25 mg/dL. For the same compound, the GLUCOSE [5] was 145 mg/dL, the “LACTATE DEHYDROGENASE” value [5] was 62 u/L and the LIPASE [5] was 19 u/L. For the same compound, the PHOSPHORUS [5] was 13.95 mg/dL, the POTASSIUM [5] was 7.05 MEQ/L and the SODIUM [5] was 149.5 MEQ/L. For the same compound, the “TOTAL BILIRUBIN” value [5] was 0.4 mg/dL, the “TOTAL PROTEIN” value [5] was 6.15 G/DL and the “URIC ACID” value [5] was 2.85 mg/dL.
